Measurements published in patent publication US11230547B2, “Purine inhibitors of human phosphatidylinositol 3-kinase delta” (Merck Sharp & Dohme Corp., priority 2017, dated 2022).

How the values were obtained:
PI3Kdelta = PI3Kdelta (Homo sapiens (Human), UniProt O00329); experiment: HTRF PI3K biochemical assay, delta isoform; conditions: 0.3 nM enzyme, 100 uM ATP, 5 uM PIP2, form screened per table
Excerpt: (§1) HTRF PI3K Biochemical Assay to Measure Intrinsic Potency of Compound Inhibitors
(§2) The PI3-Kinase biochemical assays were developed to measure the intrinsic potency and compound dependent inhibition of the alpha, beta, delta, and gamma PI3K isoform enzymes. This assay was developed and further optimized from a kit produced by Upstate (Millipore catalog #33-047) (Millipore Sigma, Billerica Mass., USA) and has been configured for high throughput screening (HTS) and structure-activity relationship (SAR) screening. Briefly, this procedure exploits the exquisite specificity and high affinity binding of […] phosphatidyl(3,4,5)triphosphate (PIP3) to the GRP1 pleckstrin homology (PH) domain to generate the signal. In the absence of PIP3, an HTRF (Homogeneous Time-Resolved Fluorescence energy transfer) complex is formed consisting of europium (u)-labeled anti-GST, GST tagged GRP1-PH domain, biotin-PIP3 (biotinylated-PIP3) and streptavidin conjugated APC (Allophycocyanin). The native PIP3 produced by PI3-Kinase activity disrupts in a competitive manner the biotin-PIP3 from the pleckstrin homology (PH) domain, resulting in the loss of energy transfer (HTRF complex) and a decrease in the signal. The format of this assay is the same for all 4 isoforms of PI3K; the differences lie in the concentration of enzyme used to achieve robust assay window. The alpha, beta, and delta assays are run at 0.5, 1, and 0.3 nM enzymes and the gamma assay is run at 5 nM enzyme. The ATP concentration is 100 uM in the alpha, beta, and delta assays and 50 uM adenosine triphosphate (ATP) in the gamma assay. All reactions are run at 5 uM PIP2.
(§3) Compounds are serially diluted (3-fold in 100% DMSO) across a 384-well polypropylene source plated from column 3 to column 12 and column 13 to column 22, to yield 10 concentration dose response for each test compound. Columns 1, 2, 23 and 24 contain either only DMSO or pharmacological known control inhibitor. Once titrations are made, 2.5 nL of the compounds on 384 well plates are reformatted and transferred by acoustic dispense in quadruplicates to a 1536 assay plate (Greiner) to assay across all four PI3K isoform enzymes.
(§4) The PI3-Kinase biochemical assay was optimized using the HTRF kit provided by Upstate (Millipore). The assay kit contains six reagents: 1) 4× Reaction Buffer; 2) native PIP2 (substrate); 3) Stop (EDTA); 4) Detection Mix A (Streptavidin-APC); 5) Detection Mix B (Eu-labeled Anti-GST plus GST-tagged PH-domain); 6) Detection Mix C. In addition, the following items were obtained or purchased; PI3Kinase (catalog #'s alpha 14-602, beta 14-603, gamma 14-558 and delta 14-604 from Upstate Biotechnology now EMD Millipore, Mahopac, N.Y., USA), dithiothreitol (Sigma-Aldrich Corp. (St. Louis, Mo., USA) Catalog #D-5545), Adenosine-5′ triphosphate (InVitrogen (Waltham, Mass., USA), Cat#AS001A), native PIP3 (PI(3,4,5)P3, diC8, H^+, CELLSIGNALS, INC., (Columbus, Ohio, USA) Cat #907) DMSO ((Sigma-Aldrich Corp. (St. Louis, Mo., USA) Catalog #472301).
(§5) PI3Kinase Reaction Buffer is prepared by dilution the stock 1:4 with de-ionized water. DTT (DL-Dithiothreitol), phosphatidylinositol 4,5-bisphosphate (PIP2) and Biotin-PIP3 were added to 1536 assay plate at a final concentration of 5 mM, […] and 25 nM on the day of use. Enzyme addition and compound pre-incubation are initiated by the addition of 1.25 ul of PI3K (at twice its final concentration) in the 1× reaction buffer to all wells using a BioRaptr™ (Beckman Coulter, Waltham, Mass. USA). Plates are incubated at room temperature for 15 minutes. Reactions are initiated by addition of 1.25 ul of 2× substrate solution (PIP2 and ATP in 1× reaction buffer) using BioRaptr™. Plates are incubated in humidified chamber at room temperature for one hour. Reactions are quenched by addition of 0.625 uL of stop solution to all wells using the BioRaptr™. […]

PI3Kalpha = PI3Kalpha (Homo sapiens (Human), UniProt P42336); experiment: HTRF PI3K biochemical assay, alpha isoform (selectivity versus delta); conditions: relative ratio PI3K-alpha IC50 value / PI3K-delta IC50 value
PI3Kalpha, sequence (P42336 whole entry, canonical isoform): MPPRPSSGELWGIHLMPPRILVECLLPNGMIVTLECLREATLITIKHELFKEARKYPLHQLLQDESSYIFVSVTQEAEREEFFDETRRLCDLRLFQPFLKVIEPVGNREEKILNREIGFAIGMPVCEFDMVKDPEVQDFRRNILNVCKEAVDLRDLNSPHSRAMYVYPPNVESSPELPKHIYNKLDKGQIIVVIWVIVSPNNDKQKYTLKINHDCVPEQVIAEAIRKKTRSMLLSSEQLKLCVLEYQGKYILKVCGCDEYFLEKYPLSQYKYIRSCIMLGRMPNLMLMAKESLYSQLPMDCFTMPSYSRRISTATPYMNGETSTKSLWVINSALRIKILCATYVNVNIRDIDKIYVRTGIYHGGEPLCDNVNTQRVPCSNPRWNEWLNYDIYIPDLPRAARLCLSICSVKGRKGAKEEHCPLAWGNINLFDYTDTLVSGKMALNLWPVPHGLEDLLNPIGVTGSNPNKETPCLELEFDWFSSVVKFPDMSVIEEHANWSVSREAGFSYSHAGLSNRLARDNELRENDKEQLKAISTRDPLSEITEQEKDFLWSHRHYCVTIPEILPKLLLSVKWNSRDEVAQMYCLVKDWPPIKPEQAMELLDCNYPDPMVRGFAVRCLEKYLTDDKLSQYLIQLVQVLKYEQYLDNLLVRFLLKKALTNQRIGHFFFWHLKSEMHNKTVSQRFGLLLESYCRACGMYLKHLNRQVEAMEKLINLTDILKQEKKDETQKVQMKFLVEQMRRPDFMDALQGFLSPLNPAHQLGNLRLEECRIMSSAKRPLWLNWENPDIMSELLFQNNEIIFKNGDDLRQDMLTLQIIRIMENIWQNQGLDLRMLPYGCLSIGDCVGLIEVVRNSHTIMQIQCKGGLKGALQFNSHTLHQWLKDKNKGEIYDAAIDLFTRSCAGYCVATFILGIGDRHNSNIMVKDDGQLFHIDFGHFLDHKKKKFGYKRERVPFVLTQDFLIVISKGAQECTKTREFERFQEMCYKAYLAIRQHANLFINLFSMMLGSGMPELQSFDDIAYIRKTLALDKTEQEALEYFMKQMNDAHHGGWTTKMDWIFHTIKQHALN
PI3Kalpha, sequence (P27986 whole entry partner, canonical isoform): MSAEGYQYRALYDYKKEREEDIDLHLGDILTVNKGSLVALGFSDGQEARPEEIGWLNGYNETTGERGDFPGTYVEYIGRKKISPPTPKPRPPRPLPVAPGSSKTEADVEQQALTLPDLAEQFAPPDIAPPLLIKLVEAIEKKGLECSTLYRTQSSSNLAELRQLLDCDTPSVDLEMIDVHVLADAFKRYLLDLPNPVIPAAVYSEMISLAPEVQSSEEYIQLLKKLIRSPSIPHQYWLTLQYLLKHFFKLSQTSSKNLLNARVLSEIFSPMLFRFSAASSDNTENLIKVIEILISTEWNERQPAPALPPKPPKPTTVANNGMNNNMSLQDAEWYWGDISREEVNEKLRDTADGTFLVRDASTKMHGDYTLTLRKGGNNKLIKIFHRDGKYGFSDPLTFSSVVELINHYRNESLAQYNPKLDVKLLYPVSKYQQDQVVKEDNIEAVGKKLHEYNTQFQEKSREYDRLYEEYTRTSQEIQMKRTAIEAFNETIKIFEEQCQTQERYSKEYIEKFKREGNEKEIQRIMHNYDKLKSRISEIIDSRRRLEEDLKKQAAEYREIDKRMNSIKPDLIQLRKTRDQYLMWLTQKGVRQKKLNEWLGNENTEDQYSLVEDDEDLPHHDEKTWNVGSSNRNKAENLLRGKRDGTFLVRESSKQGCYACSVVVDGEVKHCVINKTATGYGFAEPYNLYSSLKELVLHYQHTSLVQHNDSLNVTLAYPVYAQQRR
Excerpt: as §1, §2, §3, §4, §5

PI3Kdelta, sequence (O00329 whole entry, canonical isoform): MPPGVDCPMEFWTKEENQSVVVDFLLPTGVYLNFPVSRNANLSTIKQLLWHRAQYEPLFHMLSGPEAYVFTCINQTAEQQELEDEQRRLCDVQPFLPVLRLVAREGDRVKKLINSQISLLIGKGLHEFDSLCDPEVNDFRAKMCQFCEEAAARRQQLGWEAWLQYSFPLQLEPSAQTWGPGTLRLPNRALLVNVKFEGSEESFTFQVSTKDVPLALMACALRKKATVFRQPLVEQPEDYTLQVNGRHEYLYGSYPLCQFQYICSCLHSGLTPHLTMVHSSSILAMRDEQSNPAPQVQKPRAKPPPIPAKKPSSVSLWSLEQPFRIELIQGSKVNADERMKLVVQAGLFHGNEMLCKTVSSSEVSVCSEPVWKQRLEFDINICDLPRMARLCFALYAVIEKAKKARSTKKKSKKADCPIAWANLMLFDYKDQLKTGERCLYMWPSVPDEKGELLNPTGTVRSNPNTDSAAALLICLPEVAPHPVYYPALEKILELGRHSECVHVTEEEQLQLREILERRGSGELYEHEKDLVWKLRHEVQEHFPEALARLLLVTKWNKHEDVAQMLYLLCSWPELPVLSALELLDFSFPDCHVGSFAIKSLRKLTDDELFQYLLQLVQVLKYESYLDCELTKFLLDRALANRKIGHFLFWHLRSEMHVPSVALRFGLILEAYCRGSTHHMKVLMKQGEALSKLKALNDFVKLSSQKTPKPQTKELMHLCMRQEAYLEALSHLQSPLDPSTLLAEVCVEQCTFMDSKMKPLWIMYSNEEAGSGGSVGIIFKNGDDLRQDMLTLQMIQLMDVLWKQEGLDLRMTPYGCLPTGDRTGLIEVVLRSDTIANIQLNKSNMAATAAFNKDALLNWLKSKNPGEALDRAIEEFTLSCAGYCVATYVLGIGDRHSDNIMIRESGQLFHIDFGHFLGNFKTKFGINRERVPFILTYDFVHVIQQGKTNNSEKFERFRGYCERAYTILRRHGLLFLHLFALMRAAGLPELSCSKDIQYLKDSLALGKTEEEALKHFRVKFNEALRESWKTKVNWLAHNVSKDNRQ
PI3Kdelta, sequence (P27986 whole entry partner, canonical isoform): as the sequence (P27986 whole entry partner, canonical isoform) above

## COCC1(C(=O)N2C[C@@H]3CC2CN3c2nc(-c3cnn(C)c3)ncc2C#N)CC1 (stereo in doubt) [Compound 2-8, 4-[(1S,4R)-5-{[1-(methoxymethyl)cyclopropyl]carbonyl}-2,5-diazabicyclo[2.2.1]hept-2-yl]-2-(1-methyl-1H-pyrazol-4-yl)pyrimidine-5-carbonitrile]
PI3Kdelta
  IC50: 270 nM
PI3Kalpha
  Selectivity versus PI3Kalpha: >10

## Cn1cc(-c2ncc(C#N)c(N3CC4C[C@H]3CN4C(=O)C3CCC3)n2)cn1 (stereo in doubt) [Compound 2-9, 4-[(1S,4R)-5-(cyclobutylcarbonyl)-2,5-diazabicyclo[2.2.1]hept-2-yl]-2-(1-methyl-1H-pyrazol-4-yl)pyrimidine-5-carbonitrile]
PI3Kdelta
  IC50: 330 nM
PI3Kalpha
  Selectivity versus PI3Kalpha: >10

## Cn1cc(-c2ncc(C#N)c(N3CC4C[C@H]3CN4C(=O)c3cccs3)n2)cn1 (stereo in doubt) [Compound 2-10, 2-(1-methyl-1H-pyrazol-4-yl)-4-[(1S,4R)-5-(thiophen-2-ylcarbonyl)-2,5-diazabicyclo[2.2.1]hept-2-yl]pyrimidine-5-carbonitrile]
PI3Kdelta
  IC50: 500 nM
PI3Kalpha
  Selectivity versus PI3Kalpha: >10

## Cn1cc(-c2ncc(C#N)c(N3CC4C[C@H]3CN4C(=O)c3cocn3)n2)cn1 (stereo in doubt) [Compound 2-11, 2-(1-methyl-1H-pyrazol-4-yl)-4-[(1S,4R)-5-(1,3-oxazol-4-ylcarbonyl)-2,5-diazabicyclo[2.2.1]hept-2-yl]pyrimidine-5-carbonitrile]
PI3Kdelta
  IC50: 1100 nM
PI3Kalpha
  Selectivity versus PI3Kalpha: >10

## Cn1cc(-c2ncc(C#N)c(N3CC4C[C@H]3CN4C(=O)CC3COC3)n2)cn1 (stereo in doubt) [Compound 2-12, 2-(1-methyl-1H-pyrazol-4-yl)-4-[(1S,4R)-5-(oxetan-3-ylacetyl)-2,5-diazabicyclo[2.2.1]hept-2-yl]pyrimidine-5-carbonitrile]
PI3Kdelta
  IC50: 480 nM
PI3Kalpha
  Selectivity versus PI3Kalpha: 10

## CC(C)S(=O)(=O)N1C[C@@H]2CC1CN2c1nc(-c2cnn(C)c2)ncc1C#N (stereo in doubt) [Compound 2-13, 4-{(1S,4R)-5-[(1-methylethyl)sulfonyl]-2,5-diazabicyclo[2.2.1]hept-2-yl}-2-(1-methyl-1H-pyrazol-4-yl)pyrimidine-5-carbonitrile]
PI3Kdelta
  IC50: 470 nM
PI3Kalpha
  Selectivity versus PI3Kalpha: >10

## CCCS(=O)(=O)N1C[C@@H]2CC1CN2c1nc(-c2cnn(C)c2)ncc1C#N (stereo in doubt) [Compound 2-14, 2-(1-methyl-1H-pyrazol-4-yl)-4-[(1S,4R)-5-(propylsulfonyl)-2,5-diazabicyclo[2.2.1]hept-2-yl]pyrimidine-5-carbonitrile]
PI3Kdelta
  IC50: 620 nM
PI3Kalpha
  Selectivity versus PI3Kalpha: >10

## Cn1cc(-c2ncc(C#N)c(N3CC4C[C@H]3CN4S(=O)(=O)C3CCCC3)n2)cn1 (stereo in doubt) [Compound 2-15, 4-[(1S,4R)-5-(cyclopentylsulfonyl)-2,5-diazabicyclo[2.2.1]hept-2-yl]-2-(1-methyl-1H-pyrazol-4-yl)pyrimidine-5-carbonitrile]
PI3Kdelta
  IC50: 650 nM
PI3Kalpha
  Selectivity versus PI3Kalpha: >10

## Cn1cc(-c2ncc(C#N)c(N3CC4C[C@H]3CN4CCCF)n2)cn1 (stereo in doubt) [Compound 2-16, 4-[(1S,4R)-5-(3-fluoropropyl)-2,5-diazabicyclo[2.2.1]hept-2-yl]-2-(1-methyl-1H-pyrazol-4-yl)pyrimidine-5-carbonitrile]
PI3Kdelta
  IC50: 970 nM
PI3Kalpha
  Selectivity versus PI3Kalpha: >10

## N#Cc1cnc(-c2cn[nH]c2)nc1N1C[C@@H]2C[C@H]1CN2c1cccc(F)c1 [Compound 1-7, 4-[(1S,4S)-5-(3-fluorophenyl)-2,5-diazabicyclo[2.2.1]hept-2-yl]-2-(1H-pyrazol-4-yl)pyrimidine-5-carbonitrile]
PI3Kdelta
  IC50: 42 nM
PI3Kalpha
  Selectivity versus PI3Kalpha: >10

## Cn1cc(-c2ncc(C#N)c(N3C[C@@H]4C[C@H]3CN4c3cccc(F)c3)n2)cn1 [Compound 1-16, 4-[(1S,4S)-5-(3-fluorophenyl)-2,5-diazabicyclo[2.2.1]hept-2-yl]-2-(1-methyl-1H-pyrazol-4-yl)pyrimidine-5-carbonitrile]
PI3Kdelta
  IC50: 31 nM
PI3Kalpha
  Selectivity versus PI3Kalpha: >10

## Cn1cc(-c2ncc(C#N)c(N3CCN(c4cccc(F)c4)C(C)(C)C3)n2)cn1 [Compound 3-1, 4-[4-(3-fluorophenyl)-3,3-dimethylpiperazin-1-yl]-2-(1-methyl-1H-pyrazol-4-yl)pyrimidine-5-carbonitrile]
PI3Kdelta
  IC50: 1500 nM
PI3Kalpha
  Selectivity versus PI3Kalpha: 8

## Cn1cc(-c2ncc(C#N)c(N3CCN(c4cccc(F)c4)CC3)n2)cn1 [Compound 3-2, 4-[4-(3-fluorophenyl)piperazin-1-yl]-2-(1-methyl-1H-pyrazol-4-yl)pyrimidine-5-carbonitrile]
PI3Kdelta
  IC50: 1600 nM
PI3Kalpha
  Selectivity versus PI3Kalpha: 7

## C[C@@H]1CN(c2nc(-c3cnn(C)c3)ncc2C#N)CCN1c1cccc(F)c1 [Compound 3-3, 4-[(3R)-4-(3-fluorophenyl)-3-methylpiperazin-1-yl]-2-(1-methyl-1H-pyrazol-4-yl)pyrimidine-5-carbonitrile]
PI3Kdelta
  IC50: 170 nM
PI3Kalpha
  Selectivity versus PI3Kalpha: >10

## Cn1cc(-c2ncc(C#N)c(N3CC4CCC(C3)N4c3cccc(F)c3)n2)cn1 [Compound 3-4, 4-[8-(3-fluorophenyl)-3,8-diazabicyclo[3.2.1]oct-3-yl]-2-(1-methyl-1H-pyrazol-4-yl)pyrimidine-5-carbonitrile]
PI3Kdelta
  IC50: 1000 nM
PI3Kalpha
  Selectivity versus PI3Kalpha: >10

## C[C@@H]1CN(c2nc(-c3cnn(C)c3)ncc2C#N)CCN1C(=O)C1CC1 [Compound 4-1, 4-[(3R)-4-(cyclopropylcarbonyl)-3-methylpiperazin-1-yl]-2-(1-methyl-1H-pyrazol-4-yl)pyrimidine-5-carbonitrile]
PI3Kdelta
  IC50: 110 nM
PI3Kalpha
  Selectivity versus PI3Kalpha: >10

## CCC(=O)N1CCN(c2nc(-c3cnn(C)c3)ncc2C#N)C[C@H]1C [Compound 4-2, 4-[(3R)-3-methyl-4-propanoylpiperazin-1-yl]-2-(1-methyl-1H-pyrazol-4-yl)pyrimidine-5-carbonitrile]
PI3Kdelta
  IC50: 260 nM
PI3Kalpha
  Selectivity versus PI3Kalpha: >10

## C[C@@H]1CN(c2nc(-c3cnn(C)c3)ncc2C#N)CCN1C(=O)C1CCC1 [Compound 4-3, 4-[(3R)-4-(cyclobutylcarbonyl)-3-methylpiperazin-1-yl]-2-(1-methyl-1H-pyrazol-4-yl)pyrimidine-5-carbonitrile]
PI3Kdelta
  IC50: 370 nM
PI3Kalpha
  Selectivity versus PI3Kalpha: >10

## C[C@@H]1CN(c2nc(-c3cnn(C)c3)ncc2C#N)CCN1C(=O)C1(C)CC1 [Compound 4-4, 4-{(3R)-3-methyl-4-[(1-methylcyclopropyl)carbonyl]piperazin-1-yl}-2-(1-methyl-1H-pyrazol-4-yl)pyrimidine-5-carbonitrile]
PI3Kdelta
  IC50: 1100 nM
PI3Kalpha
  Selectivity versus PI3Kalpha: >10

## C[C@@H]1CN(c2nc(-c3cnn(C)c3)ncc2C#N)CCN1C(=O)C1CCC1(F)F (stereo partly drawn) [Compound 4-5, 4-{(3R)-4-[(2,2-difluorocyclobutyl)carbonyl]-3-methylpiperazin-1-yl}-2-(1-methyl-1H-pyrazol-4-yl)pyrimidine-5-carbonitrile]
PI3Kdelta
  IC50: 550 nM
PI3Kalpha
  Selectivity versus PI3Kalpha: >10

## C[C@@H]1CN(c2nc(-c3cnn(C)c3)ncc2C#N)CCN1C(=O)C1CCCC1 [Compound 4-6, 4-[(3R)-4-(cyclopentylcarbonyl)-3-methylpiperazin-1-yl]-2-(1-methyl-1H-pyrazol-4-yl)pyrimidine-5-carbonitrile]
PI3Kdelta
  IC50: 870 nM
PI3Kalpha
  Selectivity versus PI3Kalpha: >10
